Experimental data published in PubChem BioAssay AID248 (DTP/NCI, 2004).
Values joined by “and” are separate entries in the source; they are usually repeats but may differ in a detail not shown here. Equal entries are not always repeated. Toxic doses and inconclusive results are not listed. No stated cut-off is given here; in the data, active means T/C of 150% or more; inactive means T/C below 125%.

System: L1210 leukemia ip in BDF1 mice, survival T/C
Assay: NCI In Vivo Anticancer Drug Screen. Data for tumor model L1210 Leukemia (intraperitoneal) in B6D2F1 (BDF1) mice
Settings: endpoint: mean survival time, higher = longer survival
How it was run: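 Survival endpoint. Drug-treated group vs vehicle group, expressed as T divided by C. Tumor passaged by transplantation.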

[1] = dose: 50.0 mg/kg/injection, schedule: Q01DX001 (ip), vehicle: Klucel (hydroxypropylcellulose) (HPC)
[2] = dose: 100.0 mg/kg/injection, schedule: Q01DX001 (ip), vehicle: Klucel (hydroxypropylcellulose) (HPC)
[3] = dose: 100.0 mg/kg/injection, schedule: Q01DX001 (ip), vehicle: saline
[4] = dose: 200.0 mg/kg/injection, schedule: Q01DX001 (ip), vehicle: saline
[5] = dose: 400.0 mg/kg/injection, schedule: Q01DX001 (ip), vehicle: saline

Measured: T/C

O=C(CC1OC1c1ccccc1)c1ccccc1 (centres undefined)
inactive: [1] 110 % of control | [2] 100 % of control | dose: 100.0 mg/kg/injection, schedule: Q04DX003 (ip), vehicle: other 99 % of control | dose: 200.0 mg/kg/injection, schedule: Q01DX001 (ip), vehicle: Klucel (hydroxypropylcellulose) (HPC) 102 % of control | dose: 200.0 mg/kg/injection, schedule: Q04DX003 (ip), vehicle: other 94 % of control | dose: 400.0 mg/kg/injection, schedule: Q04DX003 (ip), vehicle: other 101 % of control

CCC/C(C)=N/Nc1ccccn1
inactive: dose: 12.5 mg/kg/injection, schedule: Q01DX009 (ip), vehicle: Klucel (hydroxypropylcellulose) (HPC) 97 % of control | dose: 25.0 mg/kg/injection, schedule: Q01DX009 (ip), vehicle: Klucel (hydroxypropylcellulose) (HPC) 94 % of control | dose: 25.0 mg/kg/injection, schedule: Q01DX009 (ip), vehicle: acetone 106 % of control | dose: 50.0 mg/kg/injection, schedule: Q01DX009 (ip), vehicle: Klucel (hydroxypropylcellulose) (HPC) 102 % of control | dose: 50.0 mg/kg/injection, schedule: Q01DX009 (ip), vehicle: acetone 87 % of control | dose: 50.0 mg/kg/injection, schedule: Q04DX003 (ip), vehicle: acetone 103 % of control | dose: 100.0 mg/kg/injection, schedule: Q01DX001 (ip), vehicle: acetone 98 % of control | dose: 100.0 mg/kg/injection, schedule: Q01DX009 (ip), vehicle: Klucel (hydroxypropylcellulose) (HPC) 102 % of control | dose: 100.0 mg/kg/injection, schedule: Q04DX003 (ip), vehicle: acetone 97 % of control | dose: 200.0 mg/kg/injection, schedule: Q01DX001 (ip), vehicle: acetone 103 % of control

CCCCC(=O)N/N=C\c1ccc(-c2ccccc2)cc1
inactive: [3] 93 % of control | [4] 96 % of control

N#CCCCCCCN=[N+]=[N-]
inactive: dose: 37.5 mg/kg/injection, schedule: Q04DX003 (ip), vehicle: saline 106 % of control | dose: 75.0 mg/kg/injection, schedule: Q04DX003 (ip), vehicle: saline 101 % of control | dose: 150.0 mg/kg/injection, schedule: Q04DX003 (ip), vehicle: saline 102 % of control

O=C(CCl)c1c(O)cc(O)cc1O
inactive: dose: 75.0 mg/kg/injection, schedule: Q01DX001 (ip), vehicle: other 106 % of control | dose: 150.0 mg/kg/injection, schedule: Q01DX001 (ip), vehicle: other 106 % of control | dose: 300.0 mg/kg/injection, schedule: Q01DX001 (ip), vehicle: other 92 % of control

Nc1nc(CBr)c(CCCCc2ccccc2)c(=O)[nH]1
inactive: dose: 37.5 mg/kg/injection, schedule: Q01DX001 (ip), vehicle: saline with Tween-80 100 % of control | dose: 75.0 mg/kg/injection, schedule: Q01DX001 (ip), vehicle: saline with Tween-80 101 % of control

N=C(N)SC(c1ccccc1)c1ccccc1
inactive: dose: 25.0 mg/kg/injection, schedule: Q01DX001 (ip), vehicle: Klucel (hydroxypropylcellulose) (HPC) 97 % of control | [1] 104 % of control | [2] 101 % of control | [3] 98 % of control

Nc1nc(N)c(N=O)c(Nc2ccc(Br)cc2)n1
inactive: dose: 60.0 mg/kg/injection, schedule: Q01DX Z (ip), vehicle: methylcellulose (MC) 108 % of control | dose: 120.0 mg/kg/injection, schedule: Q01DX Z (ip), vehicle: methylcellulose (MC) 103 % of control

CN(C)CCOC(=O)c1ccccc1C=O
inactive: dose: 100.0 mg/kg/injection, schedule: Q04DX002 (ip), vehicle: Klucel (hydroxypropylcellulose) (HPC) 105 % of control | dose: 200.0 mg/kg/injection, schedule: Q04DX002 (ip), vehicle: Klucel (hydroxypropylcellulose) (HPC) 98 % of control | dose: 400.0 mg/kg/injection, schedule: Q04DX002 (ip), vehicle: Klucel (hydroxypropylcellulose) (HPC) 102 % of control

CN(C)P(=O)(N(C)C)N(C)C
inactive: [3] 101 % of control | [4] 98 % of control | [5] 102 % of control | dose: 1:6400.0 dilution, schedule: Q01DX009 (ip), vehicle: saline 107 % of control

CCC1C(=O)N(c2ccc(S(=O)(=O)O)cc2)N=C1C (centres undefined)
inactive: dose: 100.0 mg/kg/injection, schedule: Q04DX003 (ip), vehicle: Klucel (hydroxypropylcellulose) (HPC) 95 % of control | dose: 200.0 mg/kg/injection, schedule: Q04DX003 (ip), vehicle: Klucel (hydroxypropylcellulose) (HPC) 95 % of control

CCOC(=O)C(C)(C)CO
inactive: dose: 200.0 mg/kg/injection, schedule: Q04DX003 (ip), vehicle: saline sonified 103 % of control | dose: 400.0 mg/kg/injection, schedule: Q04DX003 (ip), vehicle: saline sonified 93 % of control | dose: 800.0 mg/kg/injection, schedule: Q04DX003 (ip), vehicle: saline sonified 101 % of control

CCCCCC1CCC(C(=O)O)CC1 (centres undefined)
inactive: dose: 100.0 mg/kg/injection, schedule: Q04DX003 (ip), vehicle: saline with Tween-80 88 % of control | dose: 200.0 mg/kg/injection, schedule: Q04DX003 (ip), vehicle: saline with Tween-80 93 % of control

O=c1[nH]cnc2c1ncn2C1CCCCC1
inactive: dose: 23.12 mg/kg/injection, schedule: Q01DX Z (ip), vehicle: carboxymethylcellulose (CMC) 100 % of control | dose: 46.25 mg/kg/injection, schedule: Q01DX Z (ip), vehicle: carboxymethylcellulose (CMC) 105 % of control | dose: 46.25 mg/kg/injection, schedule: Q01DX Z (oral), vehicle: carboxymethylcellulose (CMC) 94 % of control | dose: 92.5 mg/kg/injection, schedule: Q01DX Z (ip), vehicle: carboxymethylcellulose (CMC) 96 % of control | dose: 92.5 mg/kg/injection, schedule: Q01DX Z (oral), vehicle: carboxymethylcellulose (CMC) 97 % of control | dose: 185.0 mg/kg/injection, schedule: Q01DX Z (ip), vehicle: carboxymethylcellulose (CMC) 100 % of control | dose: 185.0 mg/kg/injection, schedule: Q01DX Z (oral), vehicle: carboxymethylcellulose (CMC) 100 % of control | dose: 370.0 mg/kg/injection, schedule: Q01DX Z (oral), vehicle: carboxymethylcellulose (CMC) 97 % of control

CCCCOC(=O)Nc1ccc(OCC)cc1
inactive: [3] 107 % of control | [4] 95 % of control | [5] 93 % of control

CN=C(N)Nc1ccc(NC(=O)c2ccc(C(=O)Nc3ccc(NC(N)=NC)cc3)cc2)cc1
active: dose: 1.0 mg/kg/injection, schedule: Q01DX Z (ip), vehicle: carboxymethylcellulose (CMC) 156 % of control | dose: 2.0 mg/kg/injection, schedule: Q01DX015 (ip), vehicle: methylcellulose (MC) 236 % of control | dose: 2.0 mg/kg/injection, schedule: Q01DX Z (ip), vehicle: carboxymethylcellulose (CMC) 231 % of control and 254 % of control | dose: 4.0 mg/kg/injection, schedule: Q01DX015 (ip), vehicle: methylcellulose (MC) 228 % of control | dose: 4.0 mg/kg/injection, schedule: Q01DX Z (ip), vehicle: carboxymethylcellulose (CMC) 211 % of control | dose: 30.0 mg/kg/injection, schedule: Q01DX001 (ip), vehicle: methylcellulose (MC) 163 % of control and 211 % of control
inactive: dose: 0.25 mg/kg/injection, schedule: Q01DX015 (ip), vehicle: methylcellulose (MC) 113 % of control | dose: 0.25 mg/kg/injection, schedule: Q01DX Z (ip), vehicle: carboxymethylcellulose (CMC) 107 % of control | dose: 0.5 mg/kg/injection, schedule: Q01DX015 (ip), vehicle: methylcellulose (MC) 110 % of control | dose: 0.5 mg/kg/injection, schedule: Q01DX Z (ip), vehicle: carboxymethylcellulose (CMC) 123 % of control | dose: 16.0 mg/kg/injection, schedule: Q01DX015 (ip), vehicle: methylcellulose (MC) 93 % of control | dose: 17.0 mg/kg/injection, schedule: Q01DX Z (ip), vehicle: carboxymethylcellulose (CMC) 100 % of control | dose: 62.0 mg/kg/injection, schedule: Q01DX Z (oral), vehicle: carboxymethylcellulose (CMC) 98 % of control | dose: 125.0 mg/kg/injection, schedule: Q01DX Z (oral), vehicle: carboxymethylcellulose (CMC) 101 % of control | dose: 250.0 mg/kg/injection, schedule: Q01DX Z (oral), vehicle: carboxymethylcellulose (CMC) 105 % of control | dose: 500.0 mg/kg/injection, schedule: Q01DX Z (oral), vehicle: carboxymethylcellulose (CMC) 105 % of control

BrCC1CCCCO1 (centres undefined)
inactive: dose: 12.5 mg/kg/injection, schedule: Q01DX009 (ip), vehicle: saline with Tween-80 94 % of control | dose: 12.5 mg/kg/injection, schedule: Q04DX003 (ip), vehicle: saline with Tween-80 108 % of control | dose: 25.0 mg/kg/injection, schedule: Q01DX009 (ip), vehicle: saline with Tween-80 99 % of control | dose: 25.0 mg/kg/injection, schedule: Q04DX003 (ip), vehicle: saline with Tween-80 108 % of control | dose: 50.0 mg/kg/injection, schedule: Q01DX009 (ip), vehicle: saline with Tween-80 99 % of control | dose: 50.0 mg/kg/injection, schedule: Q04DX003 (ip), vehicle: saline with Tween-80 97 % of control
